Read-outs that look alike come from different tables or passages of the source. Bounds are passed on as bounds.

The nature of data set [1]: SRB cytotoxicity (cell viability) assay. In kind it is cell-based, Human. To be noted: human, Human Skin Fibroblast (HSF) cells; for viability at 72 h, 0.01 µM / viability at 72 h, 0.1 µM / viability at 72 h, 1 µM / viability at 72 h, 10 µM: n = 3. As to the method: (§1) Human Skin Fibroblast cell line was obtained from Nawah Scientific Inc., (Mokatam, Cairo, Egypt). Cells were maintained in DMEM media supplemented with […] of streptomycin, 100 units per mL of penicillin and 10% of heat-inactivated fetal bovine serum in humidified, 5% (v/v) CO2 atmosphere at 37 °C.
(§2) Absorbance was measured in the cytotoxicity assay at 540 nm on a BMG LABTECH®-FLUOstar Omega microplate reader (Ortenberg, Germany).
(§3) Cell viability was assessed by SRB assay.[25] Aliquots of 100 μL cell suspension (5 × 10^3 cells) were in 96-well plates and incubated in complete media for 24 h. Cells were treated with another aliquot of 100 μL media containing (DP 1, DP 2, DP 3, DP 4, DP 5 and Doxorubicin as positive control) at various concentrations ranging from (0.01, 0.1, 1, 10, 100 μm). After 72 h of drug exposure, cells were fixed by replacing media with 150 μL of 10% TCA and incubated at 4 °C for 1 h. The TCA solution was removed, and the cells were washed 5 times with distilled water. Aliquots of 70 μL SRB solution (0.4% w/v) were added and incubated in a dark place at room temperature for 10 min. Plates were washed 3 times with 1% acetic acid and allowed to air-dry overnight. Then, 150 μL of Tris (10 mM) was added to dissolve protein-bound SRB stain; the absorbance was measured at 540 nm using microplate reader. The percentage of cell viability was calculated by using the following formula:[26] [drawing 1]
(§4) Cytotoxicity assay was carried out to confirm the in silico toxicity prediction study results. As an in vitro method to monitor the potential toxicity and/or safety of simeprevir and its degradation products (DP 1, DP 2, DP 3, DP 4 and DP 5), against Human Skin Fibroblast (HSF) cell line. SRB assay was used to assess the effect of these compounds on the viability and proliferation of HSF cell line (Table S1 ^†), in addition to taking images using the optical microscope to register any change on the tested cells.
(§5) The percentage of cell viability was measured at five different concentrations (0.01, 0.1, 1, 10 and 100 μM) in comparison with doxorubicin as a standard drug (positive control) which is monitored at the same concentration range after incubation for 72 h period.

Data set [2] deals with Human Skin Fibroblast (HSF) cell line. The data set can be described thus: SRB cytotoxicity (cell viability) assay. In kind it is cell-based. Conditions: Homo sapiens; HSF cells, SRB assay, 72 h exposure, 0.01–100 μM. The protocol: as §1, §2, §3, §4, §5
On the technique in general: In SRB staining, fixed cells bind dye roughly in proportion to their protein.

The test system is the same in data set [3]. The data set can be described thus: Optical microscope stained images of the cytotoxicity assay. It counts as cell-based. To be noted: HSF cells, magnification 200×. As to the method: as §4
The optical microscope stained images were recorded as shown in Fig. 7 comparing the cytotoxic effect of the five degradation products with that of doxorubicin at a concentration of 100 μM. […] This proves that simeprevir acidic and oxidative degradation products are non-toxic up to 100 μM (IC50 > 100 μM).

A short description of data set [4]: Forced degradation study (stress degradation, HPLC). In kind it is physicochemical. The protocol:
The forced degradation studies were carried out on 1 mg mL^−1 in methanol. Acidic hydrolysis was performed by treating the drug with 0.5 M hydrochloric acid for 5 hours, while the basic hydrolysis conditions were 1 M sodium hydroxide for 5 hours. In both cases, the reaction was immersed in a boiling water bath maintained at 100 °C.
Oxidative degradation was performed by treating the drug with 3% hydrogen peroxide for 5 hours and the reaction was immersed in a boiling water bath maintained at 100 °C. In the thermal degradation, simeprevir was subjected to high temperature by placing the drug in a thermostatic oven at 100 °C.
The samples from the acidic and basic hydrolysis stress tests were neutralized and diluted with methanol to achieve final assay concentrations of 100 μg mL^−1. The final sample solutions were filtered through a 0.45 μm membrane before HPLC analysis. All sample solutions were stored at 4 °C in a refrigerator to avoid degradation.
Although, previous reports by Attia et al.[18] and Mohammed et al.[27] uses different basic hydrolysis conditions; 0.1 N NaOH for 3 hours at room temperature and 1 M NaOH for 2 hours at 60 °C; respectively. […] In our report, no peak was observed after HPLC injection of the alkaline degradation samples which is confirmed using TLC and Flash Chromatography; in which only drug peak was detected.

For data set [5] the following is noted: cited from earlier work.
For data set [6] the following is noted: no reference given; cited from earlier work.
Where [7] appears, read: 72 h, n = 3, read-out: Viability % (Mean).

The viability is a read-out of living cells in per cent, often relative to untreated cells. The term IC50 denotes the midpoint of a concentration-inhibition curve. Read a high IC50 as a need for much substance. Regarding `COc1ccc2c(OC3C[C@H]4C(=O)OC(=O)[C@@H]4C3)cc(-c3nc(C(C)C)cs3)nc2c1C` [DP 1], in data set [1] (72 h), the viability at 72 h, 0.01 µM stood at 98.7%; the viability at 72 h, 0.1 µM was 96.5%; the viability at 72 h, 1 µM was 95.6%; the viability at 72 h, 10 µM amounted to 95.2%. The viability at 72 h, 100 µM in data set [1] (setting [7]) is 92.9%. In data set [2], this molecule yielded a 50% inhibitory concentration (IC50) of more than 100 µM.

In the case of `COc1ccc2c(OC3CC4C(=O)NC5CC5C=CCCCCN(C)C(=O)C4C3)cc(-c3nc(C(C)C)cs3)nc2c1C` (stereo not shown) [DP 2], in data set [1] (72 h), the viability at 72 h, 0.01 µM is 98.5%; the viability at 72 h, 0.1 µM was 98.5%; the viability at 72 h, 1 µM came to 97.4%; the viability at 72 h, 10 µM is 97.1%. Moreover, the viability at 72 h, 100 µM in data set [1] (setting [7]) was 95.6%. Also, the concentration for half-maximal inhibition (IC50) in data set [2] was more than 100 µM.

In data set [1] (72 h), `CN1CCCCC=CC2CC2(C(=O)NS(=O)(=O)C2CC2)NC(=O)C2CC(O)CC2C1=O` (stereo not shown) [DP 3] had a viability at 72 h, 0.01 µM of 97.7%; a viability at 72 h, 0.1 µM of 97.6%; a viability at 72 h, 1 µM of 93.4%; a viability at 72 h, 10 µM of 91.1%. The viability at 72 h, 100 µM in data set [1] (setting [7]) worked out at 90.9%. Besides, the viability at 72 h, 100 µM in data set [1] (single replicate, read-out: cell viability in one of the replicates) stood at 89.9%. Besides, in data set [2], the IC50 was more than 100 µM. Moreover, the morphological changes result in data set [3] (100 μM) was “slight changes”.

In data set [1] (72 h), `COc1ccc2ccc(-c3scc(C(C)C)[n+]3[O-])[n+]([O-])c2c1CO` [DP 4] displayed a viability at 72 h, 0.01 µM of 96.1%; a viability at 72 h, 0.1 µM of 93.9%; a viability at 72 h, 1 µM of 93.1%; a viability at 72 h, 10 µM of 92.1%. Further, in data set [1] (setting [7]), the viability at 72 h, 100 µM came out at 92.7%. In data set [2], this molecule yielded an IC50 of more than 100 µM.

Take `COc1ccc2ccc(-c3scc(C(C)C)[n+]3[O-])[n+]([O-])c2c1C` [DP 5]: in data set [1] (72 h), the viability at 72 h, 0.01 µM was determined as 96.3%; the viability at 72 h, 0.1 µM is 96.8%; the viability at 72 h, 1 µM was 93.7%; the viability at 72 h, 10 µM worked out at 93%. Moreover, the viability at 72 h, 100 µM in data set [1] (setting [7]) is 92.5%. Moreover, in data set [2], the concentration for half-maximal inhibition (IC50) was more than 100 µM.

In data set [1] (72 h), `COc1cccc2c1C(=O)c1c(O)c3c(c(O)c1C2=O)C[C@@](O)(C(=O)CO)C[C@@H]3O[C@H]1C[C@H](N)[C@H](O)[C@H](C)O1` [Doxorubicin, reference compound] came in with a viability at 72 h, 0.01 µM of 99.5%; a viability at 72 h, 0.1 µM of 98.4%; a viability at 72 h, 1 µM of 59.9%; a viability at 72 h, 10 µM of 15.5%. Also, the viability at 72 h, 100 µM in data set [1] (setting [7]) stood at 3.29%. For the same molecule, in data set [2], half-maximal inhibition (IC50) required 1.4 µM. The morphological changes entry in data set [3] (0.1 μM) is recorded as “no occurrence of morphological changes”.

In general, pKa refers to the pH at which an ionisable group is half protonated. For the molecule `COc1ccc2c(O[C@@H]3C[C@H]4C(=O)N[C@]5(C(=O)NS(=O)(=O)C6CC6)C[C@H]5/C=C\CCCCN(C)C(=O)[C@@H]4C3)cc(-c3nc(C(C)C)cs3)nc2c1C` [Simeprevir], the “% Degradation, acidic degradation” value in data set [4] (0.5 M HCl at 100 °C, 5 hours) turned out to be 26.63%. Moreover, the “% Degradation, alkaline degradation” value in data set [4] (1 M NaOH at 100 °C, 5 hours) is listed as “No degradation”. Moreover, the “% Degradation, oxidative degradation” value in data set [4] (3% w/v H2O2 at 100 °C, 5 hours) amounted to 21.87%. Besides, in data set [4] (Oven at 100 °C, 10 hours), the “% Degradation, thermal degradation” value is reported as “No degradation”. Besides, the “degradation percentage, basic hydrolysis” value in data set [5] (0.1 N NaOH for 3 hours at room temperature, ref 18 (Attia et al.)) is recorded as 35.55%; in data set [5] (1 M NaOH for 2 hours at 60 °C, ref 27 (Mohammed et al.)), 39.80%. In data set [6], the pKa is 5.9.

Values taken from paper PMC9057948, “Identification, isolation, structural characterization, in silico toxicity prediction and in vitro cytotoxicity assay of simeprevir acidic and oxidative degradation products” (RSC Advances, 2020).
